Measurements published in patent US20080227870A1, “Carcinogen Solvents in Reducing the Carcinogen Concentration of Cells” (priority 2004, published 2008).

System: human fibroplasts
Test: Membrane integrity test with a vital dye after exposure to perfluorocarbon liquid
Format: cell-based
Conditions: biological compatibility statement for the used examples

FC(F)(F)C(F)(F)C(F)(F)C(F)(F)C(F)(F)C(F)(F)C(F)(F)C(F)(F)Br [perfluorooctylbromide]
toxicity to the cell: non-toxic

FC1(F)C(F)(F)C(F)(F)C2(F)C(F)(F)C(F)(F)C(F)(F)C(F)(F)C2(F)C1(F)F (centres unmarked) [perfluorodecalin]
toxicity to the cell: non-toxic
